Test results as given in US8679842B2, “Method for increasing the pool of Ngn3+ endocrine progenitor cells and pancreatic endocrine cell mass” (Assistance Publique—Hopitaux de Paris, priority 2009, dated 2014).
Entries after “also recorded” stand apart in the source; their conditions may differ.

Assays:
[1] = test system: E13.5 Rat embryonic pancreases; assay: Real-time PCR of gene expression in cultured embryonic pancreases; type: cell-based
Excerpt: (§1) Pregnant Wistar rats were purchased from the Janvier Breeding centre (CERJ, LeGenet, France). The first day postcoitum was taken as embryonic day (E) 0.5. Pregnant rats were killed with CO2 asphyxiation according to guidelines issued by the French Animal Care Committee. Dorsal pancreatic buds from E13.5 rat embryos were dissected as described previously (Miralles et al., 1998). Briefly, the stomach, pancreas and a small portion of the intestine were dissected together, and then the pancreas primordium was isolated.
(§2) Dorsal pancreatic rudiments were cultured on 0.45 μm filters (Millipore) at the air-medium interface in a 35 mm sterile Petri dishes containing 2 ml RPMI-1640 medium (Invitrogen) supplemented with 100 U/ml penicillin, 100 μg/ml streptomycin, 10 mmol/L HEPES, 2 mmol/L L-glutamine, 1× non-essential aminoacids (Invitrogen) and 10% heat-inactivated fetal calf serum (HyClone, Logan, Utah, USA). Glibenclamide (MP Biomedical) and nifedipine (Sigma), used at the indicated concentrations, were first dissolved as concentrated solutions in dimethylsulfoxide DMSO (Sigma), the final concentration of DMSO in the culture medium was less than 0.5% (vol/vol). The culture medium was changed every day. Glibenclamide and nifedipine were added to the media daily. The cultures were incubated at 37° C. in a humidified atmosphere composed of 95% air and 5% CO2. At the end of the culture period, the pancreases were photographed, and fixed as described below or harvested for RNA extraction
Total RNA was isolated from pools of at least three pancreases using the Qiagen RNeasy Microkit (Qiagen, Courtaboeuf, France) and reverse transcribed using Superscript reagents (Invitrogen). Real-time PCR was performed with the 7300 Fast real-time PCR system (Applied Bio system) using either Taqman universal PCR universal PCR master mix or SYBR green PCR master mix (Applied Biosystem) with primers and labelled probes specific for each gene. Peptidylpropyl isomerase A/Cyclophilin A was used as endogenous control and E16.5 pancreas cDNA as calibrator sample. The data were analyzed by comparative cycle threshold method (Livak et al., 1997) and presented as the fold change in gene expression. At least three pools of explants were analysed by condition.

[2] = test system: E13.5 Rat embryonic pancreases; assay: E13.5 rat embryonic pancreas organ culture: growth, morphology and toxicity (Hoechst staining); type: cell-based
Excerpt: as §1, §2
(§3) Quantification—To quantify the surface area of insulin, glucagon, PCSK1/3, CPA and amylase-expressing cells, all sections of each pancreatic rudiment were digitized. Alternate sections were examined to avoid counting the same cell twice. The surface of insulin, glucagon, PCSK1/3, CPA, amylase, and Hoechst stainings were quantified using Iplab (Scanalytics). The stained areas were summed to obtain the total surface area per rudiment in mm^2. To measure proliferation of the early progenitors expressing PDX1, we counted the frequency of BrdU positive progenitors expressing PDX1 among 3000 early progenitors expressing PDX1 per rudiment. To quantify the absolute number of NGN3-expressing cells, pancreatic rudiments were sectioned and all sections were stained with an anti-NGN3 antibody. Positive cells were counted on all sections of each pancreatic rudiment. A minimum of three rudiments was analyzed per condition.
Using the in vitro model as described above (E13.5 Rat embryonic pancreases cultured at the air/medium interface on a floating filter), we examined the effects of increased concentrations of the sulphonylurea glibenclamide (an inhibitor of KATP channels) on pancreas development. […] Under both conditions, the epithelium grew rapidly, spread into the mesenchyme, and developed lobules. There is no difference in apoptosis in pancreases cultured 7 days without or with 10 and 100 μM glibenclamide as shown by the Hoechst staining of the nuclei (FIG. 1B).

[3] = test system: E13.5 Rat embryonic pancreases; assay: Immunohistochemistry and quantification of stained surface area / cell number in cultured embryonic pancreases; type: cell-based
Excerpt: as §1, §2
Immunochemistry—The pancreatic rudiments were fixed in 10% formalin, pre-embedded in agarose gel (4% of type VII low-gelling-temperature agarose (Sigma) in H2O) and embedded in paraffin. Immunohistochemistry was performed on 4-μm paraffin sections as previously described (Duvillie et al., 2006). The primary antibodies were mouse anti insulin (1/2000; Sigma), rabbit anti-glucagon (1/1000; Diasorin), rabbit anti-amylase (1/300; Sigma), rabbit anti-carboxypeptidase A (1/600; Biogenesis, Kidlington, Oxford, UK), rabbit anti-PDX1 (1/1000) (Duvillie et al., 2003) mouse anti-BrdUrd5 (1/2; Amersham Biosciences, Buckingham, UK), rabbit anti-PCK1/3, rabbit anti-Ngn3 (1/100, Guillemain et al., 2007), rabbit anti-KIR6.2 and anti-SUR1 (1/100, Santa Cruz). The fluorescent secondary antibodies were fluorescein anti-rabbit antibody (1/200; Jackson Immunoresearch, Baltimore, Md., USA), fluorescein goat anti-rabbit Alexa Fluor 488 (1/400; Invitrogen) and Texas red anti-mouse antibody (1/200; Jackson). Nuclei were stained in blue with Hoechst 33342 (0.3 μg/ml; Invitrogen). Ngn3 detection was performed as previously described (Guillemain et al., 2007) using the Vectastain elite ABC kit (Vector laboratories).
as §3

[4] = test system: early progenitors expressing PDX1; assay: BrdU incorporation: proliferation of early PDX1 progenitors in cultured embryonic pancreases; type: cell-based, rat; details: 100 μM; 24 h culture, BrdU during last hour (FIG. 3D); control 31.24%±2.8%
Experimental: as §2, with “Glibenclamide and nifedipine were added to the media daily. The cultures were incubated at 37° C. in a humidified atmosphere composed of 95% air and 5% CO2. At the end of the culture period, the pancreases were photographed, and fixed as described below or harvested for RNA extraction” left out
as §3, with “Alternate sections were examined to avoid counting the same cell twice.” left out, “The stained areas were summed to obtain the total surface area per rudiment in mm^2.” left out, “A minimum of three rudiments was analyzed per condition.” left out

With COc1ccc(Cl)cc1C(=O)NCCc1ccc(S(=O)(=O)NC(=O)NC2CCCCC2)cc1 [glibenclamide] as the molecule, how does the “Pou3F4/Brn4 mRNA level” value ([1]; 100 μM, D7 (FIG. 2F)) read?
Its value is “significant increase”.

And the “Ngn3 expression (mRNA) increase vs control” value ([1]; 100 μM, after 5 days of culture, p<0.001 (FIG. 3A))?
The value was “sevenfold”.

And the “Ngn3 mRNA level vs control” value ([1]; 100 μM, after the D5 peak (D7), p<0.001 (FIG. 3A))?
Its value is “dramatically higher”.

What about the “insulin expression (mRNA)” value ([1]; 100 μM, as early as D3 (FIG. 2A)) of the same molecule?
The value was “strongly reduced”.

What about the “Ngn3 expression (mRNA) vs control” value ([1]; 100 μM, day 1 and 3 (FIG. 3A)) of the same molecule?
The value was “similar”.

And the “ZnT-8 expression (mRNA)” value ([1]; 100 μM, over the 7 days of culture (FIG. 2B))?
Its value is “did not affect”.

What about the “MafA expression (mRNA)” value ([1]; 100 μM, over the 7 days of culture (FIG. 2C)) of the same molecule?
Its value is “did not affect”.

What about the “NeuroD1 mRNA level vs control” value ([1]; D5, data not shown) of the same molecule?
The value was “significantly increased”.

And the “NeuroD1 mRNA level vs control” value ([1]; D7, data not shown)?
The value was “reminded enhanced”.

What about the “ZnT-8 expression vs control” value ([1]; Glib 5D, after 9, 11 and 14 days, p<0.01 (FIG. 4C)) of the same molecule?
The value was “dramatic increase”.

And the “MafA expression vs control” value ([1]; Glib 5D, after 9, 11 and 14 days, p<0.01 (FIG. 4D))?
The value was “dramatic increase”.

What about the “insulin mRNA level vs control” value ([1]; Glib-5D, D7 (FIG. 4B)) of the same molecule?
The value was “identical”.

What about the “insulin mRNA level increase vs control” value ([1]; Glib-5D, D9 (FIG. 4B)) of the same molecule?
The value was “threefold”.

And the “insulin mRNA level increase vs control” value ([1]; Glib-5D, D11 (FIG. 4B))?
The value was “twofold”.

And the “insulin mRNA level increase vs control” value ([1]; Glib-5D, D14 (FIG. 4B))?
Its value is “threefold”.

And the “ZnT-8 expression vs control” value ([1]; Glib-5D, after 7 days of culture (FIG. 4C))?
The value was “similar”.

And the “MafA expression vs control” value ([1]; Glib-5D, after 7 days of culture (FIG. 4D))?
Its value is “similar”.

And the “NeuroD1 mRNA levels vs control” value ([1]; after 1 and 3 days of culture, data not shown)?
Its value is “similar”.

And the “increase in somatostatin expression” value ([1]; after 7 days of culture, data not shown)?
Its value is “two-fold”.

What about the “pancreatic growth vs control” value ([2]; 10 nM, 100 nM, 1, 10 or 100 μM, 7 days of culture (FIG. 1A)) of the same molecule?
Its value is “similar”.

What about the “branching of the epithelium” value ([2]; 100 μM (FIG. 1A)) of the same molecule?
Its value is “more branched”.

What about the “apoptosis (Hoechst staining of the nuclei) vs control” value ([2]; 10 and 100 μM, 7 days (FIG. 1B)) of the same molecule?
Its value is “no difference”.

What about the “toxicity by overall size of pancreases (Hoechst surface area)” value ([2]; 10 or 100 μM, 7 days (FIG. 1C)) of the same molecule?
The value was “lack of glibenclamide toxicity”.

And the “pycnotic nuclei (Hoechst staining)” value ([2]; 7 days, indicated concentrations (FIG. 1B))?
Its value is “lack of pycnotic nuclei”.

And the “number of NGN3+ cells vs control” value ([3]; 100 μM, 5 days of culture (FIG. 3B, 3C))?
Its value is “threefold higher; also recorded: increased number of NGN3 positive nuclei”.

What about the “surface area occupied by PCSK1/3 staining in PDX-1+ cells vs control” value ([3]; 100 μM, 7 days (FIG. 2D)) of the same molecule?
Its value is “similar”.

And the “increase of the number of glucagon-expressing cells” value ([3]; 100 μM, 7 days (FIG. 2E))?
Its value is 3.5 fold.

What about the “decrease of surface area occupied by the insulin-cell population” value ([3]; 7 days of culture, vs control, data not shown) of the same molecule?
The value was 70%.

What about the “insulin-positive cells (insulin-staining area)” value ([3]; Glib 5D pancreases, data not shown) of the same molecule?
The value was “significant increase”.

What about the insulin-containing cells ([3]; Glib pancreases: glibenclamide during the 14-day culture period, data not shown) of the same molecule?
The insulin-containing cells was “less”.

And the insulin-expressing cells ([3]; Glib-5D: 100 μM only during first 5 days, D9, D11 or D14 (FIG. 4A))?
The insulin-expressing cells was “large number”.

And the “percentage of PDX-1+ cells that incorporate BrdU” value [4]?
The value was 32.60%±4.2%.
